This is an account of results in patent US20220259593A1, “CONTROL OF MAMMALIAN GENE DOSAGE USING CRISPR” (The Regents of the University of California, priority 2019, published 2022).

Series [1] relates to K562 CRISPRi cells. As to the kind of experiment: Perturb-seq pooled growth measurement (sgRNA counts, growth phenotype γ, relative activity). It is filed as cell-based, human. The conditions noted are these: for gamma_day5 / gamma_day10: pooled growth phenotype γ of the Perturb-seq sgRNA; for gamma_day5: day 5, K562 CRISPRi cells; for gamma_day10: day 10, K562 CRISPRi cells; for relative_activity_day5: γ relative to perfectly matched sgRNA (_00) of the same gene, day 5. An outline of the steps:
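sgRNA abundance was sequenced from genomic DNA of the same transduced population sampled on days two, seven and twelve. Phenotype γ compares normalized day seven and twelve counts with day two. Day-seven values (five days of growth) define relative sgRNA activity.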

The test system of series [2] is K562 CRISPRi cells. Described as above. It is filed as cell-based, human. Particulars: γ relative to perfectly matched sgRNA (_00) of the same gene, day 10.

In the series on K562 CRISPRi cells [1], “HSPA9_ −_137911079.23-P1P2_04 (guide GGAGCTGCGCAATGCGGTGG; listed as DNA, chemistry not fully specified)” had a gamma_day5 of −0.2005, a gamma_day10 of −0.1657 and a relative_activity_day5 of 0.211. Further, in the series with K562 CRISPRi cells [2], the relative_activity_day10 amounted to 0.2813.
In the series on K562 CRISPRi cells [1], “HSPA9_ −_137911079.23-P1P2_07 (guide GGAGCTGCGGGATGCGGTGG; listed as DNA, chemistry not fully specified)” showed a gamma_day5 of −0.8109, a gamma_day10 of −0.5036 and a relative_activity_day5 of 0.8537. This substance also displayed a relative_activity_day10 with K562 CRISPRi cells [2] of 0.8547.
On the same counts, the results for “HSPA9_ −_137911079.23-P1P2_08 (guide GGAGCTGCTCGATGCGGTGG; listed as DNA, chemistry not fully specified)” are −0.3582, −0.2762, 0.3771 and 0.4688.
On the same counts, the results for “HSPE1_ + _198365089.23-P1P2_00 (guide GGAGACTCGCAGTCCGGCCC; listed as DNA, chemistry not fully specified)” are −0.7018, −0.5672, 1 and 1.
Turning to “HSPE1_ + _198365089.23-P1P2_01 (guide GGAGACACGCAGTCCGGCCC; listed as DNA, chemistry not fully specified)”, in the series on K562 CRISPRi cells [1], the gamma_day5 is −0.616, the gamma_day10 was −0.4834 and the relative_activity_day5 came out at 0.8777. In the series on K562 CRISPRi cells [2], this substance gave a relative_activity_day10 of 0.8523.
On the same counts, the results for “HSPE1_ + _198365089.23-P1P2_02 (guide GGAGACTGGCAGTCCGGCCC; listed as DNA, chemistry not fully specified)” are −0.4365, −0.3565, 0.622 and 0.6285.
In the series on K562 CRISPRi cells [1], “HSPE1_ + _198365089.23-P1P2_03 (guide GGTGACTCGCAGTCCGGCCC; listed as DNA, chemistry not fully specified)” displayed a gamma_day5 of −0.6427, a gamma_day10 of −0.465 and a relative_activity_day5 of 0.9158. This substance showed a relative_activity_day10 in the series on K562 CRISPRi cells [2] of 0.8198.
Regarding “HSPE1_ + _198365089.23-P1P2_14 (guide GGAGACTCGCAGTCCTGCCC; listed as DNA, chemistry not fully specified)”, in the series on K562 CRISPRi cells [1], the gamma_day5 was −0.2088, the gamma_day10 is on record as −0.1965 and the relative_activity_day5 is listed as 0.2975. The substance further returned a relative_activity_day10 with K562 CRISPRi cells [2] of 0.3465.
For the substance “MTOR_ + _11322547.23-P1P2_00 (guide GGGCAGGGGGCCTGAAGCGG; listed as DNA, chemistry not fully specified)”, in the series on K562 CRISPRi cells [1], the gamma_day5 is −0.6872, the gamma_day10 was −0.5618 and the relative_activity_day5 was 1. The relative_activity_day10 in the series with K562 CRISPRi cells [2] is 1.
Regarding “MTOR_ + _11322547.23-P1P2_05 (guide GGGCAGGGGGCTTGAAGCGG; listed as DNA, chemistry not fully specified)”, in the series on K562 CRISPRi cells [1], the gamma_day5 is given as −0.4313, the gamma_day10 is −0.3448 and the relative_activity_day5 worked out at 0.6275. The relative_activity_day10 in the series on K562 CRISPRi cells [2] is given as 0.6137.
On to “MTOR_ + _11322547.23-P1P2_06 (guide GGGCAGGGGGGCTGAAGCGG; listed as DNA, chemistry not fully specified)”, for which, in the series with K562 CRISPRi cells [1], the gamma_day5 is recorded as −0.3933, the gamma_day10 is −0.2989 and the relative_activity_day5 stood at 0.5723. This substance also returned a relative_activity_day10 in the series with K562 CRISPRi cells [2] of 0.532.
For the substance “MTOR_ + _11322547.23-P1P2_07 (guide GGGCAGGGGGTCTGAAGCGG; listed as DNA, chemistry not fully specified)”, in the series on K562 CRISPRi cells [1], the gamma_day5 is −0.5893, the gamma_day10 is on record as −0.4799 and the relative_activity_day5 turned out to be 0.8576. The same substance returned a relative_activity_day10 in the series on K562 CRISPRi cells [2] of 0.8541.
On the same counts, the results for “MTOR_ + _11322547.23-P1P2_10 (guide GGGCAGGGGGCCTGAAGCAG; listed as DNA, chemistry not fully specified)” are −0.3048, −0.2327, 0.4435 and 0.4141.
On the same counts, the results for “POLR1D_ + _28196016.23-P1_00 (guide GGGAAGCAAGGACCGACCGA; listed as DNA, chemistry not fully specified)” are −0.7594, −0.6213, 1 and 1.
In the series on K562 CRISPRi cells [1], “POLR1D_ + _28196016.23-P1_01 (guide GGGAAGCCAGGACCGACCGA; listed as DNA, chemistry not fully specified)” had a gamma_day5 of −0.6945, a gamma_day10 of −0.5416 and a relative_activity_day5 of 0.9145. The substance further showed a relative_activity_day10 in the series with K562 CRISPRi cells [2] of 0.8718.
On the same counts, the results for “POLR1D_ + _28196016.23-P1_03 (guide GGTAAGCAAGGACCGACCGA; listed as DNA, chemistry not fully specified)” are −0.8471, −0.6833, 1.116 and 1.1.
On the same counts, the results for “POLR1D_ + _28196016.23-P1_07 (guide GGGAAGCAAGGAGCGACCGA; listed as DNA, chemistry not fully specified)” are −0.3019, −0.243, 0.3976 and 0.3911.
As for “POLR1D_ + _28196016.23-P1_08 (guide GGGAAGCAGGGACCGACCGA; listed as DNA, chemistry not fully specified)”, in the series on K562 CRISPRi cells [1], the gamma_day5 is given as −0.8088, the gamma_day10 is listed as −0.6317 and the relative_activity_day5 was determined as 1.065. Moreover, the relative_activity_day10 with K562 CRISPRi cells [2] was found to be 1.017.
On the same counts, the results for “POLR2H_ + _184081251.23-P1P2_00 (guide GGGGCCACGAGAGCAGCAGA; listed as DNA, chemistry not fully specified)” are −1.149, −0.6391, 1 and 1.
On to “POLR2H_ + _184081251.23-P1P2_07 (guide GGGGCCACGAGTGCAGCAGA; listed as DNA, chemistry not fully specified)”, for which, in the series with K562 CRISPRi cells [1], the gamma_day5 was −0.1894, the gamma_day10 is −0.1426 and the relative_activity_day5 was 0.1648. In the series with K562 CRISPRi cells [2], this substance registered a relative_activity_day10 of 0.223.
Turning to “POLR2H_ + _184081251.23-P1P2_08 (guide GGGGCCACGCGAGCAGCAGA; listed as DNA, chemistry not fully specified)”, in the series with K562 CRISPRi cells [1], the gamma_day5 was −0.5208, the gamma_day10 was −0.334 and the relative_activity_day5 amounted to 0.4532. In addition, the relative_activity_day10 in the series on K562 CRISPRi cells [2] was determined as 0.5225.
On the same counts, the results for “POLR2H_ + _184081251.23-P1P2_11 (guide GGGGCCACGAGAGCAGCGGA; listed as DNA, chemistry not fully specified)” are −0.9966, −0.5467, 0.8672 and 0.8554.
On the same counts, the results for “POLR2H_ + _184081251.23-P1P2_12 (guide GGGGCCACGAGAGCAGGAGA; listed as DNA, chemistry not fully specified)” are −0.3516, −0.2298, 0.306 and 0.3595.
As to “RAN_ + _131356438.23-P1P2_00 (guide GGCGGTCGCTGCGCTTAGGG; listed as DNA, chemistry not fully specified)”, in the series on K562 CRISPRi cells [1], the gamma_day5 was −0.1974, the gamma_day10 is −0.1615 and the relative_activity_day5 was 1. The substance further displayed a relative_activity_day10 in the series with K562 CRISPRi cells [2] of 1.
Turning to “RAN_ + _131356438.23-P1P2_02 (guide GGCGGCCGCTGCGCTTAGGG; listed as DNA, chemistry not fully specified)”, in the series on K562 CRISPRi cells [1], the gamma_day5 was −0.2316, the gamma_day10 was −0.2041 and the relative_activity_day5 is reported as 1.173. Also, the relative_activity_day10 in the series on K562 CRISPRi cells [2] is listed as 1.264.
On to “RAN_ + _131356438.23-P1P2_03 (guide GGGGGTCGCTGCGCTTAGGG; listed as DNA, chemistry not fully specified)”, for which, in the series with K562 CRISPRi cells [1], the gamma_day5 is −0.2162, the gamma_day10 is −0.197 and the relative_activity_day5 is given as 1.095. For the same substance, in the series with K562 CRISPRi cells [2], the relative_activity_day10 came out at 1.22.
In the series on K562 CRISPRi cells [1], “RAN_ + _131356438.23-P1P2_04 (guide GGCGGTCGCGGCGCTTAGGG; listed as DNA, chemistry not fully specified)” gave a gamma_day5 of −0.0859, a gamma_day10 of −0.08721 and a relative_activity_day5 of 0.4352. In the series on K562 CRISPRi cells [2], this substance registered a relative_activity_day10 of 0.5401.
In the series with K562 CRISPRi cells [1], “RAN_ + _131356438.23-P1P2_12 (guide GGCGGTCGCTGCGCTTAGGT; listed as DNA, chemistry not fully specified)” returned a gamma_day5 of −0.04655, a gamma_day10 of −0.03426 and a relative_activity_day5 of 0.2358. In the series with K562 CRISPRi cells [2], the relative_activity_day10 turned out to be 0.2122.
